Patent US12214036B2, “Combination therapy comprising AXL/MER and PD-1/PD-L1 inhibitors” (Incyte Corporation, priority 2020, dated 2025)

Columns and labels:
[1] = test system: human PBMCs co-cultured with H1299 cells; assay: H1299 / PBMC co-culture cytokine assay; assay type: cell-based; settings: 4 days
Procedure: The ability of Compound 1 to cooperate with checkpoint blockade to further boost antitumor responses was evaluated. H1299 lung cancer cells were co-cultured with stimulated human PBMCs treated with Compound 1, anti-human programmed cell death (PD)-1 antibody retifanlimab or the combination, and production of proinflammatory cytokines was assessed in two different experiments (FIG. 6).
H1299 cells were co-cultured with human PBMCs, each at 4 or 16×10^4 cells/mL in RPMI containing 10% FBS, 100 U/mL of penicillin-streptomycin (ThermoFisher Scientific; #15140-122) and 1× beta-mercaptoethanol (ThermoFisher Scientific; #21985-023). Compound 1 or retifanlimab were added as single agents or in combination to the cells. Anti-CD3 (BD Biosciences #555336), anti-CD28 (BD Biosciences #555725) or SEA (Toxin Technology, Sarasota, Fla.; #AT101red) were added at a final concentration of 1 μg/mL, 0.5 μg/mL or 100 ng/mL, respectively, to stimulate cell growth. Cultures were incubated at 37° C. in 5% CO2 incubator for 4 days. The supernatant was collected for cytokine analysis using a multiplex assay system (custom human ProcartaPlex Luminex kit, ThermoFisher Scientific; #PPX-15-MXRWE6P).

4T1 tumor = assay: Tumor models in immunodeficient mice; assay type: in vivo, athymic nude mice; settings: immunodeficient mice bearing the same tumors, FIG. 7C
Excerpt: MBT-2 cells were obtained from the Japanese Collection of Research Bioresources Cell Bank and were maintained in DMEM supplemented with 10% FBS. MC38 cells were obtained from the NCI. 4T1 cells were obtained from ATCC and maintained in RPMI media supplemented with 10% FBS. For MBT-2 experiments, 5×10^5 MBT-2 cells were inoculated subcutaneously into the right hind flank of 6- to 8-week-old C3H mice or athymic nude mice (Charles River Laboratories, Wilmington, Mass.). For MC38 studies, 12-week old female C57BL/6 mice were inoculated with brei of MC38 tumors (in-vivo passage 6) into the right hind flank. For 4T1 studies, 7.5×10^5 4 T1 cells were inoculated subcutaneously into the right hind flank of 6- to 8-week-old female BALB/c mice or athymic nude mice (Charles River Laboratories). Mice were randomized by tumor volume with n=10-12 per group. […] Mice were monitored for tumor growth and overt tolerability over the course of the experiment. […] Tumor volume was calculated using the formula (L×W^2)/2, where L and W refer to the length and width dimensions, respectively. Tumor growth inhibition (TGI) was calculated using the formula (1−(VT/VC))×100, where VT is the tumor volume of the treatment group on the last day of treatment, and VC is the tumor volume of the control group on the last day of treatment. […]

## CC(C)C(=O)N1CCC(c2cc(-c3ccc(NC(=O)c4cn(C(C)C)c(=O)n(-c5ccccn5)c4=O)cc3)c3c(N)ncnn23)CC1 [Compound 1, N-(4-(4-Amino-7-(1-isobutyrylpiperidin-4-yl)pyrrolo[1,2-f][1,2,4]triazin-5-yl)phenyl)-1-isopropyl-2,4-dioxo-3-(pyridin-2-yl)-1,2,3,4-tetrahydropyrimidine-5-carboxamide]
[1]; stimulated PBMCs + H1299, FIG. 6
  proinflammatory cytokine production: induction of proinflammatory cytokines
[1]; stimulated PBMCs + H1299, FIG. 6B
  induction of IFN-γ: induced
[1]; stimulated PBMCs + H1299, FIG. 6C
  induction of tumor necrosis factor-α: induced
[1]; stimulated PBMCs + H1299, FIG. 6D
  induction of granulocyte-macrophage colony-stimulating factor: induced
[1]; stimulated PBMCs + H1299, FIG. 6E
  induction of IL-12 p70: moderately induced
4T1 tumor
  antitumor activity in immunodeficient mice: no activity
